# Source: US20160017312A1, “METHOD FOR MODULATING A BACTERIAL INVASION SWITCH” (priority 2012, published 2016)
# Test system: S. meliloti cells
# Assay: Whole cell motility (swimming colonies) with added calcium
# Type: cell-based, Sinorhizobium meliloti
# Details: 1 mM Ca; protease active, non-swimming S. meliloti cells
# Method: Example 2. In no calcium or low calcium condition, most of ExoRm is in the monomeric form sensitive to protease digestion. Adding 1 mM or more Ca will turn ExoRm into dimeric form, preventing protease from binding and digesting ExoRm. So Ca is an indirect inhibitor of the protease. […] This is a typical indirect inhibitor. In the same fashion, most ions are indirect inhibitors of ExoRm protease.
# Example 1. Whole cell motility assay: The whole cell motility assay is based on the fact that inhibition of the protease lead to ExoRm increase and the cell becoming motile. The initial condition may be set with either low pH or low ion concentration, so that S. meliloti cells will form non-swimming colonies. The putative direct or indirect inhibitors can be mixed with S. meliloti cells in soft agar plates. The ones that can make S. meliloti cells to form swimming colonies are the potential direct or indirect inhibitors.
# Bacterial cell motility was examined using swarming plates containing 0.3% agar as described previously with some modifications. Briefly, fresh cell cultures were prepared and diluted to OD600 of 0.1. Then 2 μL of each diluted culture was inoculated into LB/MC soft agar plate and incubated for 2-3 days to determine colony size.
compound,measurement,value
[Ca+2] [Ca],effect on swimming of S. meliloti cells,"turn protease active, non-swimming S. meliloti cells into swimming cells"
